Tested on: steroidogenic genes in mouse skeletal muscle
Experiment: Gene expression profiling (Affymetrix GeneChip) of skeletal muscle of mice supplemented for 12 weeks
Type: in vivo
Details: 10 mg/kg body weight intragastric in DMSO/corn oil
Procedure: Procedure for Studies in Mice Using Shilajit and DBPs:
Three groups of adult mice (n=8) were intragastrically supplemented with purified Shilajit (PS), 3,8-(OH)2-DBP, or placebo for 12 weeks. At the end of week 12, skeletal muscle tissue was harvested for gene profiling. Some tissue was stored for histology and HPLC analysis.
The control group of mice received DMSO in corn oil while the PS group received 100 mg of purified Shilajit/kg body weight of mice, dissolved in water and the DBP group received 10 mg of 3,8-(OH)2-DBP/kg body weight of mice, dissolved in DMSO/corn oil.
At week 12, the following tissues were collected from mice: heart, lung, liver, brain, muscles, adipose tissue, skeletal muscle (vastus lateralis) and whole blood.
Gene Expression Profiling using GeneChip® Assay
Affymetrix GeneChip® technology (Affymetrix, Santa Clara, Calif.) was used for transcriptome profiling of skeletal muscle tissue. Gene chip assays were performed in accordance with the following references: Roy, S., Biswas, S., Khanna, S., Gordillo, G., Bergdall, V., Green, J., Marsh, C. B., Gould, L. J., Sen, C. K., “Characterization of a preclinical model of chronic ischemic wound,” Physiol. Genomics (2009) May 13; 37(3):211-24; Roy, S., Khanna, S., Rink, C., Biswas, S., Sen, C. […]

With `O=c1oc2cc(O)ccc2c2ccc(O)cc12` [3,8-(OH)2-DBP, 3,8-dihydroxy-dibenzo-a-pyrone] the “Effect on steroidogenic activity in mice” value was “did not show significant effect”.
